Measured values published in ChEMBL document CHEMBL3751785, “Development and structural analysis of adenosine site binding tankyrase inhibitors” (Bioorg Med Chem Lett, 2016).

Key:
[1] = biological target: Protein mono-ADP-ribosyltransferase PARP4 (Homo sapiens, UniProt Q9UKK3); assay: Inhibition of human ARTD4 by fluorescence analysis
[2] = biological target: Poly [ADP-ribose] polymerase 2 (Homo sapiens, UniProt Q9UGN5); assay: Inhibition of human ARTD2 by fluorescence analysis
[3] = biological target: T1, Protein mono-ADP-ribosyltransferase PARP10 (Homo sapiens, UniProt Q53GL7); assay: Inhibition of human ARTD10 by fluorescence analysis
T1 sequence (Q53GL7 whole entry): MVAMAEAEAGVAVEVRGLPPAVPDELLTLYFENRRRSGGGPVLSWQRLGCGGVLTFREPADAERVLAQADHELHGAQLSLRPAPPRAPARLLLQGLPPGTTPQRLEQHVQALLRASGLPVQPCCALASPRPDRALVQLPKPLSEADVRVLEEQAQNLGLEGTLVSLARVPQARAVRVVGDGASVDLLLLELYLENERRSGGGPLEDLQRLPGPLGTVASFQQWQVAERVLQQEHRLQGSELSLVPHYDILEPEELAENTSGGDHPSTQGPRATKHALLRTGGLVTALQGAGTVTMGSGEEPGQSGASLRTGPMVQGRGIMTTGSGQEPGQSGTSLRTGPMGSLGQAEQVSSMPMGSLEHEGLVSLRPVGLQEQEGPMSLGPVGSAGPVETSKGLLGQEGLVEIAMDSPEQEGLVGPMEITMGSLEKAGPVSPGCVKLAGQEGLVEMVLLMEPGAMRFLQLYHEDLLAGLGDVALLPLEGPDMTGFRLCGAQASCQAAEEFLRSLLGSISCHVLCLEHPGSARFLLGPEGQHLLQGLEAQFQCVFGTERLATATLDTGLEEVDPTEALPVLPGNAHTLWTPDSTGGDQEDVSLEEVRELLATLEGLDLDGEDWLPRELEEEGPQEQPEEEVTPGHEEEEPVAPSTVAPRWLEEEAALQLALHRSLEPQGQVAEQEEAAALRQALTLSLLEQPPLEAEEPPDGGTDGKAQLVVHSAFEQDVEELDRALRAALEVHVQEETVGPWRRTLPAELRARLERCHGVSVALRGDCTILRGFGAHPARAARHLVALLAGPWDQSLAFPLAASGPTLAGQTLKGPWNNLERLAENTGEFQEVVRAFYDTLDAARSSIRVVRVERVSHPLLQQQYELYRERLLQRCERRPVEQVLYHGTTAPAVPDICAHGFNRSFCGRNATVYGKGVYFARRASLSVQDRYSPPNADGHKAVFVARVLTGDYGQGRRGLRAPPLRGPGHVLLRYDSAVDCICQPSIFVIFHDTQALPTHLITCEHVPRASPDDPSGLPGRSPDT

[4] = biological target: Protein mono-ADP-ribosyltransferase PARP14 (Homo sapiens, UniProt Q460N5); assay: Inhibition of human ARTD8 by fluorescence analysis
[5] = biological target: T2, Protein mono-ADP-ribosyltransferase PARP3 (Homo sapiens, UniProt Q9Y6F1); assay: Inhibition of human ARTD3 by fluorescence analysis
T2 sequence (Q9Y6F1 whole entry): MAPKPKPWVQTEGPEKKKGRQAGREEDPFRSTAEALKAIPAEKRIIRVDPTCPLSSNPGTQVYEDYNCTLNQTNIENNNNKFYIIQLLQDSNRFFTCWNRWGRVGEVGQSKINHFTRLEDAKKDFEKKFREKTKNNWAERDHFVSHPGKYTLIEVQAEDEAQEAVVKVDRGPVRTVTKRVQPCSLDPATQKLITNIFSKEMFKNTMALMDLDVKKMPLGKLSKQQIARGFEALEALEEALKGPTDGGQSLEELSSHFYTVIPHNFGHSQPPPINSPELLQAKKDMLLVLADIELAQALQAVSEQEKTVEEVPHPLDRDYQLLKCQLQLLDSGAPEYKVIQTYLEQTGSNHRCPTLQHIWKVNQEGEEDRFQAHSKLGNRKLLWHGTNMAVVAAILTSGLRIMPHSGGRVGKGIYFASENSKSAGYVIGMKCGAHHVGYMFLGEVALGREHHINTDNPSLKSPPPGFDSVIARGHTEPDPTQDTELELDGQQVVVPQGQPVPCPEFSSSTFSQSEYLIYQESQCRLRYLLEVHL

[6] = biological target: T3, Protein mono-ADP-ribosyltransferase PARP12 (Homo sapiens, UniProt Q9H0J9); assay: Inhibition of human ARTD12 by fluorescence analysis
T3 sequence (Q9H0J9 whole entry): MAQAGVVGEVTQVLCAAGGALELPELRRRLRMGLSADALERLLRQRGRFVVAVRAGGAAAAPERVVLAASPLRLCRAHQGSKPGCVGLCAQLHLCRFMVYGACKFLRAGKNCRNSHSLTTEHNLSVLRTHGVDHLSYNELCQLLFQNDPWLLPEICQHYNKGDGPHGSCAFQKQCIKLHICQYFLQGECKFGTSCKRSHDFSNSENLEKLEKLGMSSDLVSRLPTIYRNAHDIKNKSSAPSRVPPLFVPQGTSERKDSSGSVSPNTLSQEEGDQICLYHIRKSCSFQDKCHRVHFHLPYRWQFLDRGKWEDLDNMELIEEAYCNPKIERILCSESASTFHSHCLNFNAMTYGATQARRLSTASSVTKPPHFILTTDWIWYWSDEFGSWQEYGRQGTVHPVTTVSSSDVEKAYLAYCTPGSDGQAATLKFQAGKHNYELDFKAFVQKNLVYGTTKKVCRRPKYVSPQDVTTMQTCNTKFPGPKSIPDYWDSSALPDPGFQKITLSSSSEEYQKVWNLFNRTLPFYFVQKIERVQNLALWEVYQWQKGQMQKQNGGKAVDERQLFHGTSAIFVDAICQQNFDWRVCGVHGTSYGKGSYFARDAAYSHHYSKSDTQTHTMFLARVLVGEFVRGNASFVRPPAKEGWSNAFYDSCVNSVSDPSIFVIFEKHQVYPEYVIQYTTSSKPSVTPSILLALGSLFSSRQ

[7] = biological target: Poly [ADP-ribose] polymerase 1 (Homo sapiens, UniProt P09874); assay: Inhibition of human ARTD1 by fluorescence analysis
[8] = biological target: T4, Protein mono-ADP-ribosyltransferase PARP15 (Homo sapiens, UniProt Q460N3); assay: Inhibition of human ARTD7 by fluorescence analysis
T4 sequence (Q460N3 whole entry): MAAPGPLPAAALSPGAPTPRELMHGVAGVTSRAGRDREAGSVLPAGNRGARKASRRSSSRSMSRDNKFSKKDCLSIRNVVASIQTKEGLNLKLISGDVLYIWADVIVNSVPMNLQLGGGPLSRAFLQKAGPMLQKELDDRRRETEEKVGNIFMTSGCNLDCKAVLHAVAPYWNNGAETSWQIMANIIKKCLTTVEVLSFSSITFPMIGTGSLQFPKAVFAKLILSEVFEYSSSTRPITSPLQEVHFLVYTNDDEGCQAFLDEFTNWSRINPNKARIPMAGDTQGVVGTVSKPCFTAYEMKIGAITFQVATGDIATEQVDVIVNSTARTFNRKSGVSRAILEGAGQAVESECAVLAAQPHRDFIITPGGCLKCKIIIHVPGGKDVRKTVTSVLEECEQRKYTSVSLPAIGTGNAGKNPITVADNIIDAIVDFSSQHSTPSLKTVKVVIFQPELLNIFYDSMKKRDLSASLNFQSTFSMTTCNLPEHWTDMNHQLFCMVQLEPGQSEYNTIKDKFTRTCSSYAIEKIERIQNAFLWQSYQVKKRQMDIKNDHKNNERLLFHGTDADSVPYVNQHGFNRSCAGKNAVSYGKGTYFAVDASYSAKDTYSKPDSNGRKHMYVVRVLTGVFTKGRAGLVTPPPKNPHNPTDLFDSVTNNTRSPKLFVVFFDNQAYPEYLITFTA

Chain of Poly [ADP-ribose] polymerase 1 (P09874 whole entry): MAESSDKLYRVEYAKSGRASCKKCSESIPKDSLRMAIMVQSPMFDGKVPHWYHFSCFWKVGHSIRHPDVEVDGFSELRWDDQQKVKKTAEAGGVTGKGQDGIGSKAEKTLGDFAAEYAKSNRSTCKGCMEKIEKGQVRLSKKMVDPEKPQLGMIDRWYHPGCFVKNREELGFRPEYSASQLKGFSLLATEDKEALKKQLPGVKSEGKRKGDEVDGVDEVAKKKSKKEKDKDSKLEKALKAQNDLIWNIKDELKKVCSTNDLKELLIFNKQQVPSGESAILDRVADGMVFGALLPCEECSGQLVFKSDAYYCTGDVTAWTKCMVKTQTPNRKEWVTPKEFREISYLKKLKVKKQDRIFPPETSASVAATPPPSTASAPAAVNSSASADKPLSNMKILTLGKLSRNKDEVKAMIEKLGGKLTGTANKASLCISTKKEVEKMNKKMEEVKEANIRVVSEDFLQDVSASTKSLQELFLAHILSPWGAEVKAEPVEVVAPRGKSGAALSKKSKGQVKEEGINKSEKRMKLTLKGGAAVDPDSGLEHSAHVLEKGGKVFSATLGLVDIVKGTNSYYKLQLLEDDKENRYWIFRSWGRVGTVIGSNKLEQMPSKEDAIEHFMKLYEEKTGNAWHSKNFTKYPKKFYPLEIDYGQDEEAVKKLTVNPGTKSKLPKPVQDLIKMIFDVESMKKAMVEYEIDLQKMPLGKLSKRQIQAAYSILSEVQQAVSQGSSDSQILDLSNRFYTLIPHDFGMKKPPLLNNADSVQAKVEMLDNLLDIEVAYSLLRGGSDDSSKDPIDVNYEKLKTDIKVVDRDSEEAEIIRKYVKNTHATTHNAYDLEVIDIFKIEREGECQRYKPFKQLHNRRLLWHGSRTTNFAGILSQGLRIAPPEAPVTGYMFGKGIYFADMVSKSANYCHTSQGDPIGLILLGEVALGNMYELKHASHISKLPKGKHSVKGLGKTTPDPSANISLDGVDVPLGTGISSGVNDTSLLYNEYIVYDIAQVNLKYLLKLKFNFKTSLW
Chain of Poly [ADP-ribose] polymerase 2 (Q9UGN5 whole entry): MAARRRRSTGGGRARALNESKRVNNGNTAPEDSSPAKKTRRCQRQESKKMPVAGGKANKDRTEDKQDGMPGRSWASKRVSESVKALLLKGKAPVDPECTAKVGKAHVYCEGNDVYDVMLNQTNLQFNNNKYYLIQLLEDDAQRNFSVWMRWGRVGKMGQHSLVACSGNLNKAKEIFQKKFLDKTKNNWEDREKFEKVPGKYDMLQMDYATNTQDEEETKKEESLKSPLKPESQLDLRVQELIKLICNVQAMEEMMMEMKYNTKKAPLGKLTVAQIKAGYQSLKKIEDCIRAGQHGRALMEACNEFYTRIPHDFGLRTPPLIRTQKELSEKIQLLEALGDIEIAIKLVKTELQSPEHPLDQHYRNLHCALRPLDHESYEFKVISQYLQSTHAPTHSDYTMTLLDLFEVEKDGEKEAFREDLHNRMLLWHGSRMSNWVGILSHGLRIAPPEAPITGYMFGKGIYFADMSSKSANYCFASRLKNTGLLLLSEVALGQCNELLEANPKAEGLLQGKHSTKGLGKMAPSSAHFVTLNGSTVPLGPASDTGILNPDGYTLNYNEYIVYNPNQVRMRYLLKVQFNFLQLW
Chain of Protein mono-ADP-ribosyltransferase PARP14 (Q460N5 whole entry): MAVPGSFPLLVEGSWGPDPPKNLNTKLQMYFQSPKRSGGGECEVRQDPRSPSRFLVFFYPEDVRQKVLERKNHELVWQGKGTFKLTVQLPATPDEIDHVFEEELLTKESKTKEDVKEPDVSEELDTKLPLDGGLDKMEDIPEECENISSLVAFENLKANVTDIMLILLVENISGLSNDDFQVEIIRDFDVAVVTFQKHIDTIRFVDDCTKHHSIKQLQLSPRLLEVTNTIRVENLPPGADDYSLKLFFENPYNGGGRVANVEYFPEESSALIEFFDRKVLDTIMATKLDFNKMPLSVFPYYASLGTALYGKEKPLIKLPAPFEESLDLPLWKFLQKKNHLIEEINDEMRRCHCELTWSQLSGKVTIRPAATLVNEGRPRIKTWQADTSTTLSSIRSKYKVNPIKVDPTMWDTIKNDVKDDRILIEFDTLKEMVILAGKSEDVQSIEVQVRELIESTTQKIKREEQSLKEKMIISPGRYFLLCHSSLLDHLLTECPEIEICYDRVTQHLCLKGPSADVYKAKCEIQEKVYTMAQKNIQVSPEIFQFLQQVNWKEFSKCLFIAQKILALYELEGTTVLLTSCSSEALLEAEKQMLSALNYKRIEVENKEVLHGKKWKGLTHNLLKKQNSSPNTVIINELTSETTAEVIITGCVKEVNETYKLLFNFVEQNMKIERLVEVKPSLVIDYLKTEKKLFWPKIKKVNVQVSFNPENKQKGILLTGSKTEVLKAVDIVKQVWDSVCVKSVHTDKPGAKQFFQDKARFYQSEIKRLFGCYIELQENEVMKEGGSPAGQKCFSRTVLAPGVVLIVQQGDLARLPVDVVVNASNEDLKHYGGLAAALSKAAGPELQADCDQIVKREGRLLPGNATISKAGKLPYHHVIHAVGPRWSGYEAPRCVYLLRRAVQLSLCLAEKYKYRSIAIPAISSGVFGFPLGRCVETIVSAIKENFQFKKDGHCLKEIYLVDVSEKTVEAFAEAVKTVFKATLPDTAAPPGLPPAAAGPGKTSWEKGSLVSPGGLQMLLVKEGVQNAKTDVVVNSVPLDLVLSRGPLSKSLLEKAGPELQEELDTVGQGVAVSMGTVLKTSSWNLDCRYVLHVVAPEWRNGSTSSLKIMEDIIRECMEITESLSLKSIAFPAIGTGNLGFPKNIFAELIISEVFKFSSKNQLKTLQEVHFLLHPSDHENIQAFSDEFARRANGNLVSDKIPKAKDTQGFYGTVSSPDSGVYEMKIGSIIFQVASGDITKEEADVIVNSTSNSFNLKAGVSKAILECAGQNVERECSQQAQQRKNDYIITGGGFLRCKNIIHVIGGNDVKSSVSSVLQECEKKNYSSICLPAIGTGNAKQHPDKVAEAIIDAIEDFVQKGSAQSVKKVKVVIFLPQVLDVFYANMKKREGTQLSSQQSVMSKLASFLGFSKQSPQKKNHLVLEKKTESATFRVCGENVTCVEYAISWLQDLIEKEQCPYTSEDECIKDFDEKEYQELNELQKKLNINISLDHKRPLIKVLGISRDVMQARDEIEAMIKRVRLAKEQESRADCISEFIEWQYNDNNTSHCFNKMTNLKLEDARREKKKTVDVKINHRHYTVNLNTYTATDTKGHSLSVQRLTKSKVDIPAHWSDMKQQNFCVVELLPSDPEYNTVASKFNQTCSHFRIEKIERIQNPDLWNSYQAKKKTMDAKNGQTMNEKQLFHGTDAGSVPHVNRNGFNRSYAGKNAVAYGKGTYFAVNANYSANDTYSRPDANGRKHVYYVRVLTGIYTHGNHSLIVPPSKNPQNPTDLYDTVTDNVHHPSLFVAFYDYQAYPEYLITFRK
Chain of Protein mono-ADP-ribosyltransferase PARP4 (Q9UKK3 whole entry): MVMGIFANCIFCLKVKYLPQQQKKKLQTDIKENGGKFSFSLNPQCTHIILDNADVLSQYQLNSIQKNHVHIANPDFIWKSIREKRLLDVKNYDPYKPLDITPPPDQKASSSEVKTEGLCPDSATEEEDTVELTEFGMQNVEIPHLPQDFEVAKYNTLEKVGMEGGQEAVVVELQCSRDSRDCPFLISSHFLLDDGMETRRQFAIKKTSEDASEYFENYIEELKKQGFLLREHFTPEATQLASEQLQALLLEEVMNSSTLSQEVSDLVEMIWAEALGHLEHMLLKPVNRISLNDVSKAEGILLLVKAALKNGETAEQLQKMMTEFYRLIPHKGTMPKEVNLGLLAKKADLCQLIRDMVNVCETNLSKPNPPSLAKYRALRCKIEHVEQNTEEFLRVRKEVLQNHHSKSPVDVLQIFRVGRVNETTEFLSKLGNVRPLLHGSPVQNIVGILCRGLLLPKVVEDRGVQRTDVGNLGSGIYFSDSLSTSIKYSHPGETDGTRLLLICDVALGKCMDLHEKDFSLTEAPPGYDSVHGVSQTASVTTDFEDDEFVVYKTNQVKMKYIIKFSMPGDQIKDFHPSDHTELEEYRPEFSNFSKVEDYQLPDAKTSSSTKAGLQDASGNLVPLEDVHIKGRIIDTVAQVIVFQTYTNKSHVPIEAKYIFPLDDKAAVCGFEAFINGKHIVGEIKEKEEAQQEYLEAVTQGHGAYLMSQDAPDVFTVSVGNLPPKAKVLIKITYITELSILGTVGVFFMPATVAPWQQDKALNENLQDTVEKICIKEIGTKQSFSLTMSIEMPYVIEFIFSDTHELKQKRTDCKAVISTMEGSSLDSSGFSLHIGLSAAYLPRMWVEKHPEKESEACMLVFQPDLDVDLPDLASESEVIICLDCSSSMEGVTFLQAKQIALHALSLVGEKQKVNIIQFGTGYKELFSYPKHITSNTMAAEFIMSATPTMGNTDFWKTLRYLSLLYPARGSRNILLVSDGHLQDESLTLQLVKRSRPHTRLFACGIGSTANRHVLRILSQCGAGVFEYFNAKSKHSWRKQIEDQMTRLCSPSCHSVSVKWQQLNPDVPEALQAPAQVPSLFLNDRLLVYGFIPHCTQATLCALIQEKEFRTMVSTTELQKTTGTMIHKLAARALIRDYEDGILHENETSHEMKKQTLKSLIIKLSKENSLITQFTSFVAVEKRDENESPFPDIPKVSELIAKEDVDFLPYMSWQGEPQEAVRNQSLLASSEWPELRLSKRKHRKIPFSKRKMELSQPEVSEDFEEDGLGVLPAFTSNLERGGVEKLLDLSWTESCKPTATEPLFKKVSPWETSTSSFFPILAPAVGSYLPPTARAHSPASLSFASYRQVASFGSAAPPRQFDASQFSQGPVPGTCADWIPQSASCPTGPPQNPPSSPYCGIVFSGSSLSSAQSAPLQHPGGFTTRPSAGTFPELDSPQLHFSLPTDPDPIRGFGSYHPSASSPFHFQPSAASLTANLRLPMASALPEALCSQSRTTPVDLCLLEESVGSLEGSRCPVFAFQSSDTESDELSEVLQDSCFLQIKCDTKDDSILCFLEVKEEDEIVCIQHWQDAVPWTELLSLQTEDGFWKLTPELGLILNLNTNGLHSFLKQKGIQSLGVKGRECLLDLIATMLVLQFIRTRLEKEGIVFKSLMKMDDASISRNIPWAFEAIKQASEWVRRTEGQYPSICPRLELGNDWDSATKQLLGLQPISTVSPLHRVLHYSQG

IC50 [1]: > 100 µM | IC50 [2]: > 100 µM | IC50 [3]: > 10 µM | IC50 [4]: > 10 µM | IC50 [5]: > 100 µM | IC50 [6]: > 10 µM | IC50 [7]: 77 µM | IC50 [8]: > 10 µM
Compound: COc1ccc(C(=O)Nc2ccc(C(=O)N(c3ccncn3)c3ccccc3Cl)cc2)cc1
